Assay results: patent US20060078875A1, “Genetic selection of small molecule modulators of protein-protein interactions” (The Penn State Research Foundation, priority 2004, published 2006)
Peptide text beside a SMILES is read from it.

How the values were obtained:
ATIC homodimer = molecular target: T1, ATIC homodimer (Gallus gallus, UniProt P31335); assay: ATIC RTHS ranking by spotting serial dilutions on selective media; type: cell-based; conditions: cyclic peptides in order of biological activity (1 = most active)
T1 construct: expressed in transfected cells; host or cells: E. coli RTHS strain with the ATIC fusion integrated on the chromosome
T1 sequence (P31335 1-593): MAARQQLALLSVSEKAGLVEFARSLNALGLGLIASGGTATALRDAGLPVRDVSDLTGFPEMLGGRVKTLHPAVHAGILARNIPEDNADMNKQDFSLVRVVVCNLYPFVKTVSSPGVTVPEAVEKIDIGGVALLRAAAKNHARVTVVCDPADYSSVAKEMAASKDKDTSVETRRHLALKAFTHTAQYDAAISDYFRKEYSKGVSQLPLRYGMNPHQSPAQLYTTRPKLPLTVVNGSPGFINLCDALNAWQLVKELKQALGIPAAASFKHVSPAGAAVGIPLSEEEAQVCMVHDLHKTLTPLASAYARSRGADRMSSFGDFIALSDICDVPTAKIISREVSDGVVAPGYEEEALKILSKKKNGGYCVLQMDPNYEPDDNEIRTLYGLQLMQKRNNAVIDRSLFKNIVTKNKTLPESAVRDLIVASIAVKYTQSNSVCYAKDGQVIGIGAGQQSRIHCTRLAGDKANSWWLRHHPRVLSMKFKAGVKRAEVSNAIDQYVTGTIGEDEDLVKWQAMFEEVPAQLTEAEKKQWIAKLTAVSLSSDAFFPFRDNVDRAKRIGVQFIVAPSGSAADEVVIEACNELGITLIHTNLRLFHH
Experimental: ATIC was cloned as a fusion with the bacteriophage 434 repressor DNA binding domain (into pTHCP16, FIG. 1B) such that expression of the repressor-ATIC fusion placed under control of an isopropyl β-D-thiogalactoside (IPTG) inducible promoter. […] In order to improve selection conditions, a new RTHS strain was constructed by integrating the ATIC fusion onto the chromosome. The level of IPTG giving optimal repression was determined to be 50 μM by β-galactosidase assays.
The first SICLOPPS library transformed into the selection strain encoded a hexapeptide with five random residues and a cysteine nucleophile. Approximately 10^7 transformants were plated onto histidine-free minimal media supplemented with arabinose, (inducer for SICLOPPS) 3-amino-1,2,4-triazole (3-AT, competitive inhibitor of HIS3 product) and kanamycin at a density of 10^6 per plate (100×15 mm). The plates were incubated until colonies were readily visible (approximately one in 10^5). A second library encoding an octapeptide with five random residues and an invariable SGW motif was also tested (not shown). Around 200 colonies were picked and screened for arabinose dependent growth advantage and IPTG dependent inhibition of growth to eliminate false positives. The expected phenotype was further confirmed by isolating and retransforming the selected SICLOPPS plasmids into the selection strain. The 14 remaining cyclic peptides were then ranked for activity by spotting serial dilutions of the corresponding cells onto selective media, allowing the conferred growth advantage to be compared at each dilution level.
SICLOPPS libraries were transformed into E. coli strains containing integrated reporter and repressor constructs. Transformants were washed with minimal media A and plated on minimal media A supplemented with 13 μM L-(+)-arabinose, 2.5 mM 3-amino-1,2,4-triazole, 25 μM kanamycin and 50 μM IPTG. After incubation at 37° C. for 3-4 days, surviving colonies were restreaked onto the same media with and without arabinose. Plasmids from selected strains whose growth depended on the presence of arabinose were retransformed into the original selection strain and checked for phenotype retention. The variable insert regions on SICLOPPS plasmids were PCR-amplified, and their DNA sequence determined.

avian ATIC (AICAR Tfase) [1] = molecular target: T2, avian ATIC (AICAR Tfase) (Gallus gallus, UniProt P31335); assay: AICAR Tfase progress curve analysis (DynaFit); type: biochemical; set-up: 6× histidine tag (N); made in house; conditions: progress curves
T2 sequence (P31335 1-593): T1 sequence (P31335 1-593)
Experimental: The inhibitors were assayed under two conditions, limiting the amount of each substrate. In one case 168 nM of ATIC, 100 μM of 10-f-THF and 20 μM of AICAR was used (limiting AICAR), and in the second case 168 nM of ATIC, 40 μM of 10-f-THF and 100 μM of AICAR was used (limiting 10-f-THF). The reactions were monitored as outlined above, for 50 minutes. […] The data was fitted to the standard inhibition models (non-competitive, uncompetitive, mixed and competitive) and a model in which the inhibitor binds a monomer of ATIC preventing dimerization.
The progress curves were fitted to a model in which the inhibitor binds a single protomer of ATIC thereby preventing dimerization, as well as the standard inhibition models (non-competitive, uncompetitive, mixed and competitive) using DynaFit [Kuzmic (1996)].

avian ATIC (AICAR Tfase) [2] = molecular target: T2, avian ATIC (AICAR Tfase); assay: AICAR Tfase assay
Experimental: All assays were performed using a Varian Cary 100 Spectrometer. All reaction mixtures were 500 μl in volume and carried out in 1 cm pathlength quartz cuvettes at 25° C. The enzyme used in all of the inhibition studies was avian ATIC, fused to a N-terminal 6× histidine tag to facilitate purification. […] The peptides were dissolved in DMSO to a final concentration of 2.5 mM.
84 nM of ATIC, 50 μM of 10-f-THF and various quantities of inhibitor were mixed in the assay buffer (32.5 mM Tris-HCl, 25 mM KCl, pH 7.4). The mixture was incubated at 25° C. for 2 min before initiating the reaction by addition of 20 μM AICAR. The reaction was monitored by measuring the increase in absorbance due to formation of tetrahydrofolate at 298 nm.
The peptides were assumed to be competing with f-10-THF, which binds to ATIC and stabilizes its dimerization.

[3] = molecular target: T3, ribonucleotide reductase large subunit (mR1) (Mus musculus, UniProt P07742); assay: Immobilized peptide binding/competition ELISA with mR1; set-up: species or system murine; conditions: peptide immobilized via cysteine on maleimide plates; His6-tagged mR1
T3 construct: made in house; host or cells: E. coli BL21(λDE3) Rosetta, pET28a-MR1
T3 sequence (P07742 1-792): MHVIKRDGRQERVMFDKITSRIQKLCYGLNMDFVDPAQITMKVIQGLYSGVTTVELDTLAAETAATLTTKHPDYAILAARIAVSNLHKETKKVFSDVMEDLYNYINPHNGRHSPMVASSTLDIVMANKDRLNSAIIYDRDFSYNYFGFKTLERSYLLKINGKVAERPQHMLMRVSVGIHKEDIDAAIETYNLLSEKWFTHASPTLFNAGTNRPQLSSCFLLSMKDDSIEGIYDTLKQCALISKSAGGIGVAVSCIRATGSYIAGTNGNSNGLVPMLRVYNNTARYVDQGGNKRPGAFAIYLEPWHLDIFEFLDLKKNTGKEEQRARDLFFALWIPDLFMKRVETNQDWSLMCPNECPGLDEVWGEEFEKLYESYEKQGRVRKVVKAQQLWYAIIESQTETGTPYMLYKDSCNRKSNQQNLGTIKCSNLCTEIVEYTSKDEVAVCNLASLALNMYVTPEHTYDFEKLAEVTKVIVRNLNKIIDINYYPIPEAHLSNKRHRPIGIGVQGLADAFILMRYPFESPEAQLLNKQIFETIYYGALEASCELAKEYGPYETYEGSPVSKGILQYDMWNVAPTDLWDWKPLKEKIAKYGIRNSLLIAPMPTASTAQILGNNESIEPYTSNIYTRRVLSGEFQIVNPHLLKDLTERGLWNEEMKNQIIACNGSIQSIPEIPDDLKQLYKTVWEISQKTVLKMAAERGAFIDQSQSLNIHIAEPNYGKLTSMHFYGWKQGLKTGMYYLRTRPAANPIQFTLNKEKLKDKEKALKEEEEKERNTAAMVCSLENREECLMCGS
Experimental: (§1) FIG. 8B provides the results of an immobilized P8 ELISA.
(§2) Two variations of solid phase binding assays were used for analyzing the binding of peptide inhibitors to ribonucleotide reductase subunits: i) protein competition ELISA where peptides were competing with mR1 for binding to immobilized mR2, ii) binding and competition ELISA with covalently immobilized ligands. In general, the solid phase assays were performed in microtiter plates (MaxiSorp, Nunc) or strip units (Reacti-Bind™ Maleimide Activated Clear Strip Plates, Pierce) involving continuous agitation in Junior Orbit Shaker (Lab-line Instruments) at medium speed during all of the incubation steps. Sample volumes were 100 μL, unless specified otherwise. Following coating, blocking step was conducted by incubating pre-loaded wells with 5% bovine serum albumin in PBS for 1 h at room temperature. Wash procedures between any two successive incubations involved three washes with 200 μL of 0.5% Tween-20 in PBS (PBST), with the second wash involving a 5 min incubation. Detection of His-tagged proteins was performed with Ni·NTA-HRP conjugate (Qiagen) according to the manufacturer instructions.
(§3) Peptides (200 nmol per well) in 10% DMF/50 mM Tris·HCl (pH 7.5) with 1 mM TCEP were reacted for 2 h at room temperature with maleimide-derivatized polystyrene wells. The unreacted sites were blocked by incubating wells with 5 μM cysteine in 50 mM Tris·HCl (pH 7.5) for 30 min. Following washing and blocking steps, the wells were incubated with His-tagged mR1 or mR2 in the presence or absence of inhibitors. The retained protein was detected via Ni·NTA-HRP conjugate.
(§4) To determine the mechanism of action of the four identified sequences an alternative assay format was devised (FIG. 8A), where a peptide with a residual activity in its immobilized form can serve as a specific ligand for receptor capture in both binding and competition ELISA. The success of such an assay relies on both efficient peptide immobilization strategy and sufficient level of affinity, uncompromised by this display strategy. The peptide immobilization becomes feasible through implementation of a cysteine, a nucleophile used in splicing, as a universal chemoselective handle allowing covalent attachment strategy through a suitable electrophile. Chemoselective attachment of such peptides on appropriately derivatized surfaces should both display the small molecules for detection with a suitable protein receptor and allow binding site competition analysis, not unlike in a traditional immunosorbent format.

[4] = molecular target: T4, ribonucleotide reductase small subunit (mR2) (Mus musculus, UniProt P11157); assay: Immobilized c-RR130 binding/competition ELISA with mR2; set-up: species or system murine; conditions: increasing protein concentrations
T4 construct: made in house; host or cells: E. coli BL21(λDE3), pET28a-MR2
T4 sequence (P11157 1-390): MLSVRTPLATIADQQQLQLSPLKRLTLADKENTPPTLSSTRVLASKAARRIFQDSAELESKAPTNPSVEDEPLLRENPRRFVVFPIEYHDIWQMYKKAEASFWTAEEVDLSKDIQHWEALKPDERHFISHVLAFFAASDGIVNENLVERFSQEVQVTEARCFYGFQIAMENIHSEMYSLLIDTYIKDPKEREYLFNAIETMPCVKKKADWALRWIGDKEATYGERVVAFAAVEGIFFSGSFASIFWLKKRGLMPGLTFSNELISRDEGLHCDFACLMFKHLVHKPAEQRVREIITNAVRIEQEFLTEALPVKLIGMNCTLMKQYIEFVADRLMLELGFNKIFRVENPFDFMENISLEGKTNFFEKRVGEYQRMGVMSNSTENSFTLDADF
Experimental: as §1, §2, §3, §4

His6-mR2 = molecular target: T5, His6-mR2 (Mus musculus, UniProt P11157); assay: Quenching of intrinsic mR2 tryptophan fluorescence; type: binding, murine; conditions: PBS pH 7.0
T5 construct: made in house; host or cells: E. coli BL21(λDE3), pET28a-MR2
T5 sequence (P11157 1-390): T4 sequence (P11157 1-390)
Experimental: The equilibrium dissociation constant, KD, for His-tagged mR2·cRR130 complex was measured by the quenching of intrinsic protein fluorescence as a function of ligand concentration using a Flouromax-2 (SA Instruments) spectrofluorometer. His6-mR2 was added to 1× phosphate buffered saline (PBS) buffer at pH 7.0, and enzyme concentrations were kept below the KD being measured and were typically 1 μM. The small subunit mR2 contains six tryptophan residues whose combined fluorescence was monitored at 350 nm with excitation at 295 nm. Fluorescence data were collected as a function of added cRR130. The data was corrected for ligand background fluorescence and were fit to a hyperbolic equation to generate the KD value.

HIV-1 protease = molecular target: T6, HIV-1 protease (Human immunodeficiency virus type 1 group M subtype B, UniProt P04585, D513N); assay: RTHS β-galactosidase assay, HIV-1 protease fusion in strain SNS118; type: cell-based; conditions: peptide co-expressed with HIV-1 protease fusion
T6 construct: HIV-1 protease was PCR amplified from pET-HIV-1; expressed in transfected cells; host or cells: E. coli strain SNS118 (integrated fusion)
Experimental: FIG. 4 has two graphs (A and B) of β-galactosidase assays showing the effect of linear peptide inhibitors on the oligomeric state of HIV-1 protease and ribonucleotide reductase.
pHIV5. HIV-1 protease was PCR amplified from pET-HIV-1 [Ido et al. (1991) J. Biol. Chem. 266:24359-24366] and cloned into SalI and BamHI sites of pTHCP16. The catalytic aspartate (D25) was mutated to asparagine using 3-primer PCR [Michael (1994) Biotechniques 16:410-412], and a S(G)4S linker was added at the SalI site.
Overlapping oligonucleotides encoding MTVSYEL (methionine plus hexapaptide control inhibitor) (SEQ ID:17) [Schramm et al. (1996) Antiviral Res. 30:155-170] were cloned into EcoRI and SphI sites on arabinose expression plasmid pBAD18.
Towards this goal, both enzyme complexes were probed with known linear peptidic inhibitors. These peptides are a C-terminal hexapeptide (FIG. 4A, pHIV16) for HIV protease that inhibits the essential β-sheet interactions [Schramm al. (1996) Antiviral Res. 30:155-170], and a heptapeptide for ribonucleotide reductase (pTHCP35, FIG. 4B) that competes with binding between subunits mR1 and mR2 [Yang et al. (1990) FEBS Lett. 272:61-64].

For `CC(C)[C@@H]1NC(=O)[C@H](CC(N)=O)NC(=O)[C@H](Cc2ccccc2)NC(=O)[C@H](Cc2ccc(O)cc2)NC(=O)[C@H](CCCNC(=N)N)NC(=O)[C@H](CS)NC1=O` [c-1a, R Y F N V C] (cyclo(RYFNVC)), the “Activity Rank” value (ATIC homodimer) was 1, the “Best-fitting inhibition model with respect to 10-f-THF” value (avian ATIC (AICAR Tfase) [1]) was “inhibition of enzyme dimerization” and the “Best-fitting inhibition model with respect to AICAR” value (avian ATIC (AICAR Tfase) [1]) was “non-competitive inhibition model”.

With `CSCC[C@@H]1NC(=O)[C@H](Cc2c[nH]c3ccccc23)NC(=O)CNC(=O)[C@H](CO)NC(=O)[C@H](C(C)C)NC(=O)[C@H](CC(N)=O)NC(=O)[C@H](CC(C)C)NC(=O)[C@H](Cc2ccccc2)NC1=O` [c-151, M F L N V SGW] (cyclo(WMFLNVSG)) the “Activity Rank” value (ATIC homodimer) was 1 and the Ki (avian ATIC (AICAR Tfase) [2]) was 59 ± 6.8 µM.

`CC(C)[C@@H]1NC(=O)[C@H](CC(N)=O)NC(=O)[C@H](Cc2ccc(O)cc2)NC(=O)[C@H](Cc2ccc(O)cc2)NC(=O)[C@H](CCCNC(=N)N)NC(=O)[C@H](CS)NC1=O` [c-RR130] (cyclo(CRYYNV)) was tested, and the “Affinity of immobilized peptide toward mR1” value [3] was “immune”, the “Capture of His6-tagged mR2 by immobilized peptide” value [4] was “selectively captured” and the Kd (His6-mR2) was 53 µM.

`CC(C)[C@@H]1NC(=O)[C@H](Cc2ccc(O)cc2)NC(=O)[C@H](CCCNC(=N)N)NC(=O)[C@H](Cc2c[nH]cn2)NC(=O)[C@H](CS)NC(=O)[C@H](Cc2ccccc2)NC1=O` [c-RR133] (cyclo(CHRYVF)) was tested, and the Kd (His6-mR2) was 133 µM.

For MTVSYEL [pHIV16], the “Repression of the lacZ reporter” value (HIV-1 protease) was “relieved repression”.
